This is an account of results in patent publication US12611380B2, “Solution and method for reducing the virulence of viruses, bacteria, yeasts, or fungus” (priority 2020, dated 2026).

Converted amounts (≈) assume the structure as drawn. “And” between values parts separate entries of the source, which are not always exact repeats. Identical values can stand only once. Starred links: 1 amine or outer side, 2 acyl side, 3 side chain; linkers in the order of their positions; H or OH if unused. Positions of bridges follow the written chain, without caps; N, C: chain ends. Non-standard residues stand in square brackets, D forms with d. Residues, ends and D or L forms follow the SMILES beside them. *: point of attachment. hTyr(3S-OH,4S-OH,3'-OSO3H) = N[C@H](C(=O)O)[C@H](O)[C@@H](O)c1ccc(O)c(OS(=O)(=O)O)c1; Orn(4R-OH,5R-OH) = O=C([C@H](C[C@@H](O)[C@@H](O)N[*:3])N[*:1])[*:2]; Pro(3S-OH,4S-Me) = C[C@H]1CN[C@H](C(=O)O)[C@H]1O; X1 = CCCCCOc1ccc(-c2cc(-c3ccc(C(=O)*)cc3)no2)cc1; Gln(3R-OH) = NC(=O)C[C@@H](O)[C@H](N)C(=O)O; Hyp = O=C(O)[C@@H]1C[C@@H](O)CN1 Some results are limits rather than exact numbers.

The test system of one data set is SARS-COV-2. The experiment in a line: Virucidal assay, 2 minutes contact, end-point titer (CCID50) on Vero 76 cells. The settings on record: Ethanol 63%, 2 minutes.
Data set [1] is classed as physicochemical. To be noted: for Viscosity: 6% of the named additive added to 8% ILCS (potassium) hydro-gel; for reduction in viscosity: 6% additive in ILCS gel, 140° F. 1-3 days then 108° F. 2-4 days. The procedure: A simple viscometer, Digital Viscosity Meter (NDJ-8S, Shaoxing Worner Lab Equipment Co., Ltd., China) was used, recognizing the limitations of measuring a solid gelatin hydro-gel. […] The ILCS was initially incubated at 120° F. overnight, equilibrated at […]. prior to viscometry.
ILCS was made from potassium hydroxide (Spectrum Chemical, Louisville, KY), isomerized linoleic acid (Stepan, New Jersey), and USP WFI water (Ceela Naturals), to a final concentration 8% or 333 mM Potassium Linoleate (isomerized).
Many of the amino acids tested were purchased from Ajinomoto (NJ, USA), while tryptophan, proline, and phenylalanine were obtained from Purebulk (Oregon, USA). The Quorum Sensing Agent phenylethanol was purchased from Sigma Aldrich (GA, USA).
The gel and compound were incubated at 140° F. for 1-3 days followed by incubation 108° F. for 2-4 days.

The test system of another data set is Candida auris, (AR-0381). The settings on record: isolate AR Isolate Bank #0381; cited from earlier work.
For data set [2], the system named is Candida albicans (ATCC 10231). The experiment in a line: EPA protocol MB-35-00 hard surface carrier disinfection test.
Protocol: (§1) We used EPA protocol MB-35-00 for testing disinfectants against C. auris (US Environmental Protection Agency. 2017, 2020) and C. albicans ATCC 10231, a yeast common in package spoilage of food and cosmetics.
(§2) We tested 5 batches produced with difference sources of isomerized linoleic acid (Test Substances 1-5).
(§3) The EPA test protocol for testing hard surface disinfection of C. auris (AR0381) with antifungal resistance includes an overnight culture of C. auris (AR.0381) shaken at 200 rpm at 30° C. From this culture, 8 mL was harvested by centrifugation, re-suspended in 2-3 mL phosphate-buffered saline (PBS), and mixed with a 3-part soil load including bovine serum albumin (BSA), yeast extract, and mucin. Metal carriers (10 mm) were inoculated (10 μL culture+soil load) and dried in a desiccator under vacuum (˜70 min). The disk surface was coated with the test substance at 0.42 M (50 μL) for up to 10 min. Following incubation, the carriers were transferred to 10 mL neutralization solution (Sabouraud Dextrose Broth [SDB], a common yeast-mold growth media) for subsequent harvesting on membrane filters. The filtered membranes were transferred to Sabouraud Dextrose Emmons Agar (SDEA) plates to culture for 120 hours at 31° C. Controls consisted of PBS (50 μL) applied to inoculated metal disk carriers, subsequently transferred to 10 mL neutralization solution (SDB), diluted serially in PBS, and plated directly to SDEA plates, See FIG. 2.
(§4) We prepared and qualified these per EPA protocol (US Environmental Protection Agency, 2017). • Soil Stocks: We prepared soil stocks with yeast extract powder (Ref RM027) purchased from Himedia, BSA (A2153) purchased from Sigma Life Science, and gastric mucin (cat #HY-B2196/CS-7626) purchased from Mod Chem Express per SOP MB-35-00 (US Environmental Protection Agency, 2017). • Cell Harvesting: We removed cells from the growth culture media using a Micro-Centrifuge obtained from Changzhou Jintan Sanhe Instrument Co., LTD. (Model TGI6-W) at 10,000×g for 10 min in screw-top-cap vials purchased from Heathrow Scientific (Item HS 100600). The optical density of the inoculate was defined at 15-19 OD600 in PBS with the Ultrospec 10 Cell Density Meter from BioChrom (Holliston, MA, USA) prior to dilution in the soil load. Samples were diluted 1:10 in PBS to obtain absorbance readings between 1.5 and 1.9. • Membrane Filtration: Treated yeasts were collected using a combination of the Rocker (Cat #200300-01) and 47 mm PES membranes with a 0.45 micron pore size obtained from Sterlitech (Catalog #PE54547100).
The next data set concerns microbial growth. The experiment in a line: Reduction in microbial growth. The settings on record: potassium hexadiene at pH 9. Format: cell-based.
Setting [3] is: second experiment, Tables 8 and 9.
[4] abbreviates: second experiment, positive control, Table 5.
[5] abbreviates: all testing runs (Tables 2 and 3).

Protocol for Candida auris (AR-0381): as §1, §2, §3, §4

Regarding `CCO` [Ethanol, reference compound], the “LRV (log reduction value)” value was above 1.8 with SARS-COV-2 (Table 7); above 1.8 with SARS-COV-2 (positive control, Table 4); above 2.0 in the data set with SARS-COV-2 (setting [3]); above 2.0 in the data set on SARS-COV-2 (setting [4]). For the same molecule, the Virus Titer is <1.7 Log10 CCID50of virus per 0.1 mL with SARS-COV-2 (Table 7); <1.7 Log10 CCID50 of virus per 0.1 mL with SARS-COV-2 (positive control, Table 4); <1.7 Log10 CCID50of virus per 0.1 mL in the data set on SARS-COV-2 (setting [3]); <1.7 Log10 CCID50 of virus per 0.1 mL in the data set on SARS-COV-2 (setting [4]). For the same molecule, in the data set on Vero 76 cells, the “toxicity to cells in titer plates” value was “toxic to cells”.
`CC(C)[C@H](N)C(=O)O` [Valine] registered a Viscosity in data set [1] of 31850 milliPoise.
What is called MIC is the lowest concentration found to suppress growth. Consider `CC[C@@H]([C@H](C)O)n1ncn(-c2ccc(N3CCN(c4ccc(OC[C@@H]5CO[C@@](Cn6cncn6)(c6ccc(F)cc6F)C5)cc4)CC3)cc2)c1=O` [Posaconazolc, posaconazole], for which the MIC in the data set on Candida auris, (AR-0381) was 0.06 µg/mL (≈ 0.0856 µM).
In data set [1], `N[C@@H](CC(=O)O)C(=O)O` [Aspartic acid] registered a Viscosity of 25100 milliPoise.
`CC(C)(CO)C(O)C(=O)NCCCO` (stereo not drawn) [D L Panthenol] gave a Viscosity in data set [1] of 28650 milliPoise.
Regarding `CC[C@H](C)[C@H](N)C(=O)O` [Iso-Leucine], the Viscosity in data set [1] is on record as 29900 milliPoise.
For `N[C@@H](Cc1c[nH]c2ccccc12)C(=O)O` [Tryptophan], in data set [1], the reduction in viscosity result is recorded as “two log-reduction in viscosity” and the Viscosity is listed as 21 milliPoise.
Turning to `CC[C@H](C)C[C@H](C)CCCCCCCCC(=O)N[C@H]1C[C@@H](O)[C@@H](NCCN)NC(=O)[C@@H]2[C@@H](O)CCN2C(=O)[C@H]([C@H](O)CCN)NC(=O)[C@H]([C@H](O)[C@@H](O)c2ccc(O)cc2)NC(=O)[C@@H]2C[C@@H](O)CN2C(=O)[C@H]([C@@H](C)O)NC1=O` [Caspofungin], in the data set with Candida auris, (AR-0381), the MIC is 0.13 µg/mL (≈ 0.119 µM).
As for `C[C@@H](c1ncncc1F)[C@](O)(Cn1cncn1)c1ccc(F)cc1F` [Voriconazole], the MIC in the data set on Candida auris, (AR-0381) is 0.03 µg/mL (≈ 0.0859 µM).
Take `OC(Cn1cncn1)(Cn1cncn1)c1ccc(F)cc1F` [Fluconazolc, fluconazole]: the MIC in the data set with Candida auris, (AR-0381) is 4.00 µg/mL (≈ 13.1 µM).
As for Anidulaftrngin, in the data set with Candida auris, (AR-0381), the MIC is 0.25 µg/mL.
`Nc1[nH]c(=O)ncc1F` [Flucytosine]: in the data set with Candida auris, (AR-0381), the MIC is 2.00 µg/mL (≈ 15.5 µM).
With `Cl.NCCCC[C@H](N)C(=O)O` [Lysine-hcl], the Viscosity in data set [1] is 30700 milliPoise.
Still for that read-out and setting: with `NC(=O)c1cccnc1` [Niacinamide] the figure was 33800 milliPoise; with `C[C@@H](O)[C@H](N)C(=O)O` [Threonine], 30650 milliPoise.
On to `C/C=C/C=C/C(=O)[O-].[K+]` [Potassium Sorbate, Potassium sorbate], for which the “Test Disks Density (log)” value in data set [2] (Exposure 1 min., yeast recovered from treated carriers) is 4.8 log and 4.9 log; with Candida auris (AR-0381) (Exposure 2 min., yeast recovered from treated carriers), 5.0 log and 4.9 log. In addition, the kill rates result (in data set [2] (setting [5]); in the data set with Candida auris (AR-0381) (setting [5])) was “less than one log” each time. Besides, in the data set on microbial growth, the “reduction in microbial growth” value is “little reduction in microbial growth”.
As for `N=C(N)NCCC[C@H](N)C(=O)O` [Arginine], the Viscosity in data set [1] is 25600 milliPoise.
On the same count and under the same terms, with `N[C@@H](Cc1c[nH]cn1)C(=O)O` [Histidine base] the figure was 28050 milliPoise; with `NCCCC[C@H](N)C(=O)O` [Lysine base], 26900 milliPoise; with `C[C@H](N)C(=O)O` [Alanine], 40700 milliPoise.
Take `CSCC[C@H](N)C(=O)O` [Methionine]: the Viscosity in data set [1] is listed as 32350 milliPoise.
`CC(C)(CO)[C@@H](O)C(=O)NCCCO` [D Panthenol] yielded a Viscosity in data set [1] of 31600 milliPoise.
The same measure, in the same setting: with `N[C@@H](CO)C(=O)O` [Serine] the figure was 22300 milliPoise.
As to `C[C@@H]1[C@H](O)[C@@H](C)/C=C/C=C/C=C/C=C/C=C/C=C/C=C/[C@H](O[C@@H]2O[C@H](C)[C@@H](O)[C@H](N)[C@@H]2O)C[C@@H]2O[C@](O)(C[C@@H](O)C[C@@H](O)[C@H](O)CC[C@@H](O)C[C@@H](O)CC(=O)O[C@H]1C)C[C@H](O)[C@H]2C(=O)O` [Amphotericin 81], the minimum inhibitory concentration (MIC) in the data set on Candida auris, (AR-0381) was 0.38 µg/mL (≈ 0.411 µM).
In data set [1], `Cl.N[C@@H](CS)C(=O)O` [Cysteine-HCl] registered a Viscosity of 28400 milliPoise.
As for `CCCCCOc1ccc(-c2cc(-c3ccc(C(=O)N[C@H]4C[C@@H](O)[C@@H](O)NC(=O)[C@@H]5[C@@H](O)[C@@H](C)CN5C(=O)[C@H]([C@H](O)CC(N)=O)NC(=O)[C@H]([C@H](O)[C@@H](O)c5ccc(O)c(OS(=O)(=O)O)c5)NC(=O)[C@@H]5C[C@@H](O)CN5C(=O)[C@H]([C@@H](C)O)NC4=O)cc3)no2)cc1` [Micafungin] (X1-[Orn(4R-OH,5R-OH)]T[Hyp][hTyr(3S-OH,4S-OH,3'-OSO3H)][Gln(3R-OH)][Pro(3S-OH,4S-Me)]; lactam 1-C), in the data set on Candida auris, (AR-0381), the MIC was 0.13 µg/mL (≈ 0.102 µM).
In the case of `N[C@@H](Cc1ccccc1)C(=O)O` [Phenylalanine], in data set [1], the reduction in viscosity entry was “two log-reduction in viscosity” and the Viscosity stood at 130 milliPoise.
In the case of `CCC(C)n1ncn(-c2ccc(N3CCN(c4ccc(OCC5COC(Cn6cncn6)(c6ccc(Cl)cc6Cl)O5)cc4)CC3)cc2)c1=O` (stereo not drawn) [Iuaconazole, itraconazole], the minimal inhibitory concentration (MIC) in the data set with Candida auris, (AR-0381) is 0.13 µg/mL (≈ 0.184 µM).
